Data as given in US11612602B2, “Heterocyclic compounds and uses as anticancer agents” (ACEA Therapeutics, Inc., priority 2012, dated 2023).

Key:
Assay type in all cases: cell-based
[1] = molecular target: T1, EGFR (WT), A431 cell (Homo sapiens, UniProt P00533); assay: ELISA assay of EGFR phosphorylation in A431 cells; conditions: EGFR pY1068 sandwich ELISA, 2 hours compound, 30 ng/mL EGF last 15 minutes
T1 construct: endogenous in cells; host or cells: A431
Method: (§1) H1975 and A431 cells were seeded onto each well of a 96-well plate at a density of 4×10^4 cells per well. After 24 hours of growth in serum-containing media, cells were treated with test compound in serum-free medium for 2 hours. A431 cells were stimulated with 30 ng/mL EGF during the last 15 minutes of compound treatment. Cells were washed with ice cold PBS before extraction with 100 μl per well cell lysis buffer. Phosphorylation of EGFR was measured using a sandwich ELISA assay with the pair of phospho-specific EGFR (pY1068) and total EGFR antibodies.

[2] = molecular target: T2, EGFR (T790M/L858R), H1975 cell (Homo sapiens, UniProt P00533, L858R/T790M); assay: ELISA assay of EGFR phosphorylation in H1975 cells; conditions: for IC50: EGFR pY1068 sandwich ELISA, 2 hours compound in serum-free medium; for Selectivity (WT/T790M): ratio of IC50 A431 cell (WT) to IC50 H1975 cell (T790M/L858R)
T2 construct: endogenous in cells; host or cells: H1975
T2 sequence (P00533 25-1210 T790M/L858R): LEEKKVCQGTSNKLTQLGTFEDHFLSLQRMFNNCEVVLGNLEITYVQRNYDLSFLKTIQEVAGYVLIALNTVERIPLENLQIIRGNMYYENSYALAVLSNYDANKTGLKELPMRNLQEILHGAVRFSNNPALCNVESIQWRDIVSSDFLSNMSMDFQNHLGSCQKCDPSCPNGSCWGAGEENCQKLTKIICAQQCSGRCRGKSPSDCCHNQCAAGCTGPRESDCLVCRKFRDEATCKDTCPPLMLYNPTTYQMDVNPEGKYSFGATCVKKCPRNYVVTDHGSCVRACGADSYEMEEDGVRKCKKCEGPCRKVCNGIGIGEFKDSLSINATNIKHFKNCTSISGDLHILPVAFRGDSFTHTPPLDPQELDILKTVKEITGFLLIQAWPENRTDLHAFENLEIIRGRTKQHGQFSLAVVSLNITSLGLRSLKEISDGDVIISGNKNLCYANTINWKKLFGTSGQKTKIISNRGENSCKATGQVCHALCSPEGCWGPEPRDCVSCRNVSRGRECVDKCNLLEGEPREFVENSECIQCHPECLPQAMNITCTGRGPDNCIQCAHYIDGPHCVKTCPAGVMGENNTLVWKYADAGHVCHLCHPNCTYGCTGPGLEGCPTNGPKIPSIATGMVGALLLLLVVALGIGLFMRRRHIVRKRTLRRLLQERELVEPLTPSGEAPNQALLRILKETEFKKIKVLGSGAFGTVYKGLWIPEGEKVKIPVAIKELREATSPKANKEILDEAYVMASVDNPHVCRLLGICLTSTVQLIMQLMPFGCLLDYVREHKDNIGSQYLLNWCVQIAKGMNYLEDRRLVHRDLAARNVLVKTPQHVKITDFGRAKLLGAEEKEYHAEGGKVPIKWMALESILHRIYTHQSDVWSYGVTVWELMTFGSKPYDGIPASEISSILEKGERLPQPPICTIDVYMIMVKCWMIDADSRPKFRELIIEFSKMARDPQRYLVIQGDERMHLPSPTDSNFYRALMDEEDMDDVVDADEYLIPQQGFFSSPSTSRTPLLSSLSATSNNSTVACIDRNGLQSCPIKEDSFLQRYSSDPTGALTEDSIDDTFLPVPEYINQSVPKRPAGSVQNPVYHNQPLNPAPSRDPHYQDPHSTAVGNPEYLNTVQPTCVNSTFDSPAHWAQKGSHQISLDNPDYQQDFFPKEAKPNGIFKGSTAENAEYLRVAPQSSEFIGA
Method: as §1

[3] = system: EGFR in A431 cells; assay: A431 EGF stimulation assay (impedance, xCelligence RTCA); conditions: Homo sapiens, A-431
Method: All cell lines were obtained from the American Type Culture Collection and were maintained at 37° C. with 5% CO2, in media supplemented with 10% fetal bovine serum and 1% L-glutamine-penicillin-streptomycin. […] A431 and Hela cells were maintained in Dulbecco's Modification of Eagle's Medium. EGF (R&D), EGF inhibitors were resuspended and stored according to the manufacturers' instructions.
Impedance measurements were taken using the xCelligence RTCA system (Roche Applied Science) instrument using the E-plates 96-well device from the same company. Cells were trypsinized and seeded on a 96-well E-plate at a density of 15000 cells per well in a volume of 0.1 ml. Cells were allowed to attach and proliferate overnight. […] Following serum starvation, the cells were pretreated with compounds or vehicle for 40 min and then stimulated with EGF at 30 ng/mL. Throughout the experimental process, the cells were continually monitored, and the changes in impedance were acquired with the xCelligence RTCA system. After EGF treatment, data acquisition was done every minute for up to 2 h. For each cell type the optimal cell concentration was chosen based on their respective proliferation pattern.

[4] = system: EGFR in H1975 cells; assay: H1975 EGF stimulation assay (impedance, xCelligence RTCA); conditions: Homo sapiens, NCI-H1975, 40 min pretreatment, EGF 30 ng/mL
Method: (§2) All cell lines were obtained from the American Type Culture Collection and were maintained at 37° C. with 5% CO2, in media supplemented with 10% fetal bovine serum and 1% L-glutamine-penicillin-streptomycin. H1975, HCC827 and A549 cells were cultured with RPMI 1640 media. A431 and Hela cells were maintained in Dulbecco's Modification of Eagle's Medium. EGF (R&D), EGF inhibitors were resuspended and stored according to the manufacturers' instructions.
Impedance measurements were taken using the xCelligence RTCA system (Roche Applied Science) instrument using the E-plates 96-well device from the same company. Cells were trypsinized and seeded on a 96-well E-plate at a density of 15000 cells per well in a volume of 0.1 ml. Cells were allowed to attach and proliferate overnight. Prior to compound treatment, H1975 cells were serum starved in RPMI-1640 for a total of 4 h. Following serum starvation, the cells were pretreated with compounds or vehicle for 40 min and then stimulated with EGF at 30 ng/mL. Throughout the experimental process, the cells were continually monitored, and the changes in impedance were acquired with the xCelligence RTCA system. After EGF treatment, data acquisition was done every minute for up to 2 h. For each cell type the optimal cell concentration was chosen based on their respective proliferation pattern.

[5] = system: H1975 cells; assay: H1975 cell viability assay (cytotoxicity, xCelligence RTCA); conditions: 3 days
Method: as §2
(§3) Cells were seeded in 96-well E-Plate devices, and attachment, spreading, and proliferation were monitored using the xCelligence RTCA system. After 20 h of RTCA profiling, the cells were treated with the indicated compounds prediluted in growth media to a final maximal DMSO concentration of 0.1%, and the responses were measured at 30-min intervals for 3 days. For each cell type the optimal cell concentration was chosen based on their respective proliferation pattern.

[6] = system: HeLa cells; assay: HeLa cell viability assay (cytotoxicity, xCelligence RTCA); conditions: Homo sapiens, 72 h, 3 days
Method: as §2, §3

[7] = system: A549 cells; assay: A549 cell viability assay (cytotoxicity, xCelligence RTCA); conditions: Homo sapiens, 72 h, 3 days
Method: as §2, §3

T1 sequence (P00533 25-1210): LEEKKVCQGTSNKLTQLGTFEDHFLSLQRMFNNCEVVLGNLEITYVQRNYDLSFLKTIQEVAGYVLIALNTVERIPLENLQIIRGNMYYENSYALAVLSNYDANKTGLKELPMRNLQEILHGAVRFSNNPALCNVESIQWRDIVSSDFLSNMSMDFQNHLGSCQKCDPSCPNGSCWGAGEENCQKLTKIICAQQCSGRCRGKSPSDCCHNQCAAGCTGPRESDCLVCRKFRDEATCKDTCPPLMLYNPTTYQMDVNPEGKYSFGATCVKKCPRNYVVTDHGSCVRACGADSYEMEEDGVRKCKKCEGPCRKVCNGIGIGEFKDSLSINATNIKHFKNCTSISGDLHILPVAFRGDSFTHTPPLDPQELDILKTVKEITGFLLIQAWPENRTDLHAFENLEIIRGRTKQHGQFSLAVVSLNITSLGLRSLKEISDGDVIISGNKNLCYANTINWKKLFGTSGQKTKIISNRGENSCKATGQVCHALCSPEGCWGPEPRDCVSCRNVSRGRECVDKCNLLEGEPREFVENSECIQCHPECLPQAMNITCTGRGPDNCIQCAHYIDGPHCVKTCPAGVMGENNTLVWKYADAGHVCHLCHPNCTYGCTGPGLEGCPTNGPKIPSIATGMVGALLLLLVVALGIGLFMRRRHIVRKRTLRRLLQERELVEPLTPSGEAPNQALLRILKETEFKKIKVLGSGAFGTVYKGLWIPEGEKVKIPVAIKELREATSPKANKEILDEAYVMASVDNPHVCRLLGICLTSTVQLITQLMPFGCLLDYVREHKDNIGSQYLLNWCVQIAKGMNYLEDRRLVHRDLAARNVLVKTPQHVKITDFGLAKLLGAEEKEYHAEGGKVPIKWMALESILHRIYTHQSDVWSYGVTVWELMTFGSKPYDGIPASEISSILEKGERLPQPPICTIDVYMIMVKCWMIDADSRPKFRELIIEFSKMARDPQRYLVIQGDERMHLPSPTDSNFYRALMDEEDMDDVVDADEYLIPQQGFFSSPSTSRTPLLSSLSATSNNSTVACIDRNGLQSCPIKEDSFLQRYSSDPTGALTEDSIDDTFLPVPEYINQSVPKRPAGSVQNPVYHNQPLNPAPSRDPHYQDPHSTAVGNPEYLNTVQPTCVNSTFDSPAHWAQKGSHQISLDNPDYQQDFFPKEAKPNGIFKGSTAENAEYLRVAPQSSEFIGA

Row | SMILES | IC50 [1] [µM] | IC50 [2] [µM] | Selectivity (WT/T790M) [2] | IC50 [3] [µM] | IC50 [4] [µM] | H1975 cell viability assay (under head IC50 (uM), results in words) [5] | IC50 [6] [µM] | IC50 [7] [µM]
1 | C=CC(=O)Nc1cccc(C(F)(F)c2nc(Nc3ccc(N4CCN(C)CC4)cc3)nc3c2ccn3CO)c1 [Compound 27a, N-(3-(difluoro(7-(hydroxymethyl)-2-(4-(4-methylpiperazin-1-yl)phenylamino)-7H-pyrrolo[2,3-d]pyrimidin-4-yl)methyl)phenyl)acrylamide] | 23.4 | 0.058 | 403 | – | – | – | – | –
2 | C/C=C/C(=O)Nc1cccc(C(F)(F)c2nc(Nc3ccc(N4CCN(C)CC4)cc3)ncc2F)c1 [Compound 40] | 25.3 | 1.74 | 14.6 | – | – | – | – | –
3 | C=CC(=O)Nc1cccc(C(F)(F)c2nc(Nc3ccc(N4CCN(C)CC4)c(F)c3)ncc2F)c1 [Compound 36] | 2.17 | 0.093 | 23.3 | – | – | – | – | –
4 | C=CC(=O)Nc1cccc(C(F)(F)c2nc(Nc3ccc(N4CCN(C)CC4)cc3OC)ncc2OC)c1 [Compound 63] | 28.8 | 0.03 | 974 | – | – | – | – | –
5 | C=CC(=O)Nc1cccc(C(F)(F)c2nc(Nc3ccc(N4CCN(C)CC4)cc3)nc3[nH]ccc23)c1 [Compound 28a, N-(3-(difluoro(2-(4-(4-methylpiperazin-1-yl)phenylamino)-7H-pyrrolo[2,3-d]pyrimidin-4-yl)methyl)phenyl)acrylamide] | 2.73 | 0.026 | 107 | – | – | – | – | –
6 | C=CC(=O)Nc1cccc(C(F)(F)c2nc(Nc3ccc(N4CCN(C)CC4)c(F)c3)ncc2OC)c1 [Compound 34] | 4.37 | 0.038 | 113 | – | – | – | – | –
7 | C=CC(=O)Nc1cccc(C(F)(F)c2nc(Nc3ccc(N4CCN(C)CC4)c(F)c3)nc3[nH]ccc23)c1 [Compound 28c, N-(3-(difluoro(2-(3-fluoro-4-(4-methylpiperazin-1-yl)phenylamino)-7H-pyrrolo[2,3-d]pyrimidin-4-yl)methyl)phenyl)acrylamide] | 8.05 | 0.08 | 100 | – | – | – | – | –
8 | C/C=C/C(=O)Nc1cccc(C(F)(F)c2nc(Nc3ccc(N4CCN(CC)CC4)cc3)ncc2F)c1 [Compound 42] | 11.8 | 1.63 | 7.2 | – | – | – | – | –
9 | C=CC(=O)Nc1cccc(Oc2nc(Nc3ccc(N4CCN(C)CC4)cc3OC)ncc2Cl)c1 [WZ4002, reference compound] | – | – | – | 0.817 | 1.1 | Active | > 6.7 | > 20
10 | C=CC(=O)Nc1cccc(C(F)(F)c2nc(Nc3ccc(N4CCN(C)CC4)cc3)nc3[nH]cnc23)c1 [Compound 13a, N-(3-(difluoro(2-(4-(4-methylpiperazin-1-yl)phenylamino)-9H-purin-6-yl)methyl)phenyl)acrylamide] | 13.7 | 0.17 | 82 | 2.4 | 1.7 | Active | > 2.2 | > 20
11 | C=CC(=O)Nc1cccc(C(F)(F)c2nc(Nc3ccc(N4CCN(C)CC4)cc3)ncc2F)c1 [Compound 19, N-(3-(difluoro(5-fluoro-2-(4-(4-methylpiperazin-1-yl)phenylamino)pyrimidin-4-yl)methyl)phenyl)acrylamide] | 2.46 | 0.029 | 85 | 0.97 | 1.1 | Active | > 6.7 | > 6.7
12 | C=CC(=O)Nc1cccc(C(F)(F)c2nc(Nc3ccc(N4CCN(CC)CC4)cc3)ncc2F)c1 [Compound 39] | 0.71 | 0.041 | 17.3 | – | – | – | – | –
13 | C=CC(=O)Nc1cccc(C(F)(F)c2nc(Nc3ccc(N4CCN(C)CC4)cc3OC)nc3[nH]cnc23)c1 [Compound 13b, N-(3-(difluoro(2-(2-methoxy-4-(4-methylpiperazin-1-yl)phenylamino)-9H-purin-6-yl)methyl)phenyl)acrylamide] | 10.8 | 0.34 | 32 | 4.1 | 1.9 | – | > 20 | > 20
14 | C=CC(=O)Nc1cccc(C(F)(F)c2nc(Nc3ccc(N4CCN(C)CC4)cc3OC)nc3[nH]ccc23)c1 [Compound 28d, N-(3-(difluoro(2-(2-methoxy-4-(4-methylpiperazin-1-yl)phenylamino)-7H-pyrrolo[2,3-d]pyrimidin-4-yl)methyl)phenyl)acrylamide] | > 20 | 0.158 | >127 | – | – | – | – | –
15 | C=CC(=O)Nc1cccc(C(F)(F)c2nc(Nc3ccc(N4CCN(C)CC4)nc3)ncc2F)c1 [Compound 33] | 7.17 | 0.099 | 72.6 | – | – | – | – | –
16 | C=CC(=O)Nc1cccc(C(F)(F)c2nc(Nc3ccc(N4CCN(C)CC4)cc3OC)ncc2F)c1 [Compound 32] | > 20 | 1.3 | >15.4 | – | – | – | – | –
17 | C=CC(=O)Nc1cccc(C(F)(F)c2nc(Nc3ccc(N4CCN(C)CC4)nc3)ncc2OC)c1 [Compound 31] | > 20 | 0.03 | >657 | – | – | – | – | –
18 | C=CC(=O)Nc1cccc(C(F)(F)c2nc(Nc3ccc(N4CCN(C)CC4)cc3)ncc2Cl)c1 [Compound 38] | 3.81 | 0.341 | 11.2 | – | – | – | – | –
19 | C=CC(=O)Nc1cccc(C(F)(F)c2nc(Nc3ccc(N4CCN(C)CC4)cc3)ncc2C)c1 [Compound 37] | 11.1 | 0.106 | 105 | – | – | – | – | –
20 | C=CC(=O)Nc1cccc(C(F)(F)c2nc(Nc3ccc(N4CCN(C)CC4)nc3)nc3[nH]ccc23)c1 [Compound 28b, N-(3-(difluoro(2-(6-(4-methylpiperazin-1-yl)pyridin-3-ylamino)-7H-pyrrolo[2,3-d]pyrimidin-4-yl)methyl)phenyl)acrylamide] | 12 | 0.026 | 466 | – | – | – | – | –
21 | C=CC(=O)Nc1cccc(C(F)(F)c2nc(Nc3ccc(N4CCN(C)CC4)cc3)ncc2OC)c1 [Compound 35] | 3.61 | 0.062 | 58.4 | – | – | – | – | –
